Measured values from patent US8497376B2, “Inhibitors of c-fms kinase” (Janssen Pharmaceutica N.V., priority 2007, dated 2013).

Experiments:
[1] = tested on: mouse bone-marrow derived macrophages; experiment: CSF-1-driven mouse bone-marrow derived macrophages assay (BrDU incorporation); format: cell-based; settings: Mus musculus, BMDM, CSF-1-driven proliferation, 30 hrs culture
Method: Macrophages were derived by culturing mouse bone marrow in alpha-MEM supplemented with 10% FCS and 50 ng/ml recombinant mouse CSF-1 in bacteriologic dishes. On the sixth day, macrophages were detached from dishes, washed, and resuspended to 0.05 million cells/ml in alpha-MEM containing 10% FCS. One hundred ul of cell suspension were distributed per well into 96 well culture plates. Wells were further supplemented with the addition of 50 ul media containing 15 ng/ml CSF-1, 3 uM Indomethacin, and 3× of a dilution series of test compounds. The cells were cultured for 30 hrs at 37 degrees and 5% CO2. During the final six hours, cultures were supplemented with an additional 30 ul of media containing a 1:500 dilution of bromodeoxyuridine (BrDU). At the end of the culture period, the plates were spun at 1000 RPM for 1 minute and 130 ul of media was removed with a pipet and replaced with 150 ul of fixative solution for 1 hour@room temperature. The fixative was then dispelled from the plates and the plates allowed to air dry. Incorporation of BrDU into the fixed, dried cells was quantified using a specific ELISA.

c-fms = c-fms (Homo sapiens (Human), UniProt P07333); experiment: Autophosphorylation fluorescence polarization competition immunoassay for c-fms inhibition; format: biochemical; settings: 10 nM c-fms, 1 mM ATP; average of three independent measurements
Method: The assay buffer used was 100 mM 4-(2-hydroxyethyl)piperazine1-ethanesulfonic acid (HEPES), pH 7.5, 1 mM 1,4-dithio-DL-threitol (DTT), 0.01% (v/v) Tween-20. Compounds were diluted in assay buffer containing 4% dimethylsulfoxide (DMSO) just prior to the assay. […] The kinase reaction was initiated by adding 2 μL of 5 mM ATP (Sigma) in assay buffer. The final concentrations in the assay were 10 nM c-fms, 1 mM ATP, 5 mM MgCl2, 2% DMSO. Control reactions were ran in each plate: in positive and negative control wells, assay buffer (made 4% in DMSO) was substituted for the compound; in addition, positive control wells received 1.2 μL of 50 mM ethylenediaminetetraaceticacid (EDTA). The plates were incubated at room temperature for 45 min. At the end of the incubation, the reaction was quenched with 1.2 μL of 50 mM EDTA (EDTA was not added to the positive control wells at this point; see above). Following a 5-min incubation, each well received 10 μL of a 1:1:3 mixture of anti-phosphotyrosine antibody, 10×, PTK green tracer, 10× (vortexed), FP dilution buffer, respectively (all from PanVera, cat. # P2837). The plate was covered, incubated for 30 min at room temperature and the fluorescence polarization was read on the Analyst. The instrument settings were: 485 nm excitation filter; 530 nm emission filter; Z height: middle of well; G factor: 0.93. […] The reported IC50 values are averages of three independent measurements.

Sequence of c-fms (P07333 20-972): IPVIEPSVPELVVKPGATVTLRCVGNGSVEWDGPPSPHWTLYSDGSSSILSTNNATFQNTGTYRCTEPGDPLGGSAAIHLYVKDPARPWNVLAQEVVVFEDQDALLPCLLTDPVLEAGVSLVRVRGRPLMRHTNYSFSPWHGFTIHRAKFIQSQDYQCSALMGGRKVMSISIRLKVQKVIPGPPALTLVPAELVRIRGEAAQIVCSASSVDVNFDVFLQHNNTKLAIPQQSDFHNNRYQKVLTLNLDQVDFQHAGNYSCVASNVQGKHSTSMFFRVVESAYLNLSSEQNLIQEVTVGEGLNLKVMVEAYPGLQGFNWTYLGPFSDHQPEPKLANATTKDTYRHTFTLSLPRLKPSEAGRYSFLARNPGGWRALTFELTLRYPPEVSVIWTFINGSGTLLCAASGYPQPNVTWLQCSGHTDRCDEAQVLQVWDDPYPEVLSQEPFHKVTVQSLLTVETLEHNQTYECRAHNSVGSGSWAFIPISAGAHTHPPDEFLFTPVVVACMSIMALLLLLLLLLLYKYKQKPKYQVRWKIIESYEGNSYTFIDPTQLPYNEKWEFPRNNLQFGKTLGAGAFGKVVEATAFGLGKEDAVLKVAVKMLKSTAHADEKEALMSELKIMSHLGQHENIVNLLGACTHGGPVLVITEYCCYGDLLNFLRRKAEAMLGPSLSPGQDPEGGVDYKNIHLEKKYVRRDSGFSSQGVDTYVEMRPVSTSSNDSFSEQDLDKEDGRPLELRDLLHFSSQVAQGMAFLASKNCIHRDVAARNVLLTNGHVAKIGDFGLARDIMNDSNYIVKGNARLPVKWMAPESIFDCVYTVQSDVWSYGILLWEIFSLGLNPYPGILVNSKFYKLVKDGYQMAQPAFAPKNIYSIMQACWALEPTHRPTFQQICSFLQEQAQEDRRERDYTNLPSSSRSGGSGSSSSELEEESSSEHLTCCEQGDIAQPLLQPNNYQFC

Compound | IC50 [1] | IC50 (c-fms)
CC1(C)CC=C(c2cc([C@]3(O)C[C@@]4(CO)C=C[C@@](CO)(C3)O4)ccc2NC(=O)c2nc(C#N)c[nH]2)CC1 [Example 2, 4-Cyano-1H-imidazole-2-carboxylic acid[2-(4,4-dimethyl-cyclohex-1-enyl)-4-((3-exo)-3-hydroxy-1,5-bis-hydroxymethyl-8-oxa-bicyclo[3.2.1]oct-6-en-3-yl)-phenyl]-amide] | 37 nM | –
CC1(C)CC=C(c2nc(C3CC(C)(C)S(=O)(=O)C(C)(C)C3)ccc2NC(=O)c2nc(C#N)c[nH]2)CC1 [Example 21, 4-Cyano-1H-imidazole-2-carboxylic acid[2-(4,4-dimethyl-cyclohex-1-enyl)-6-(2,2,6,6-tetramethyl-1,1-dioxo-hexahydro-1λ^6-thiopyran-4-yl)-pyridin-3-yl]-amide] | 18 nM | 8.9 nM
CC1(C)CC=C(c2cc([C@@]3(O)C[C@@]4(C)O[C@@](C)(C3)[C@@H]3OC(C)(C)O[C@@H]34)ccc2NC(=O)c2nc(C#N)c[nH]2)CC1 [Example 11, 4-Cyano-1H-imidazole-2-carboxylic acid[2-(4,4-dimethyl-cyclohex-1-enyl)-4-[(3-exo)-3-hydroxy-1,5-dimethyl-6-exo,7-exo-(dimethylmethylenedioxy)-bicyclo[3.2.1]oct-3-yl]-phenyl]-amide] | 2.5 nM | 1.8 nM
CC1(C)CC=C(c2cc([C@@]3(O)C[C@@]4(C)O[C@@](C)(C3)[C@H](O)[C@@H]4O)ccc2NC(=O)c2nc(C#N)c[nH]2)CC1 [Example 12] | 36 nM | 0.66 nM
COC(=O)N1[C@@]2(C)C=C[C@]1(C)C[C@@](O)(c1ccc(NC(=O)c3nc(C#N)c[nH]3)c(C3=CCC(C)(C)CC3)c1)C2 [Example 10, 3-(3-exo)-[4-[(4-Cyano-1H-imidazole-2-carbonyl)-amino]-3-(4,4dimethyl-cyclohex-1-enyl)-phenyl]-(3-exo)-3-hydroxy-1,5-dimethyl-8-aza-bicyclo[3.2.1]oct-6-ene-8-carboxylic acid methyl ester] | 40 nM | 3.5 nM
CC1(C)CC=C(c2nc([C@H]3C[C@@]4(C)O[C@@](C)(C3)[C@@H]3OC(C)(C)O[C@@H]34)ccc2NC(=O)c2nc(C#N)c[nH]2)CC1 [Example 17, 4-Cyano-1H-imidazole-2-carboxylic acid[6-[(3-exo)-6-exo,7-exo-(isopropylidinedioxy)-1,5-dimethyl-8-oxa-bicyclo[3.2.1]oct-3-yl]-2-(4,4-dimethyl-cyclohex-1-enyl)-pyridin-3-yl]-amide] | 37 nM | 4.6 nM
CC1(C)CC=C(c2cc(C3CC(C)(C)S(=O)(=O)C(C)(C)C3)ccc2NC(=O)c2nc(C#N)c[nH]2)CC1 [Example 22, 4-Cyano-1H-imidazole-2-carboxylic acid[2-(4,4-dimethyl-cyclohex-1-enyl)-4-(2,2,6,6-tetramethyl-1,1-dioxo-hexahydro-1λ^6-thiopyran-4-yl)-phenyl]-amide] | 3.6 nM | 2 nM
C[C@@H]1C2(C)C=C[C@@](C)(O2)[C@H](C)[C@@]1(O)c1ccc(NC(=O)c2nc(C#N)c[nH]2)c(C2=CCC(C)(C)CC2)c1 [Example 30, 4-Cyano-N-(2-(4,4dimethylcyclohex-1-enyl)-4-[(3-exo)-3-hydroxy-(2-endo,4-endo-dimethyl)-1,5-dimethyl-8-oxabicyclo[3.2.1]oct-6-en-3-yl)phenyl)-1H-imidazole-2-carboxamide] | – | 99 nM
